This test deals with hydrochloric acid-induced acute lung injury in mice. Kind of test: Hydrochloric acid-induced acute lung injury, lung permeability, tail intravenous injection of Example 2. In kind it is in vivo. Also noted: dose or concentration left out as unconfirmed. The protocol: 1. In this example, […], respectively, which corresponded to the freshly prepared pharmaceutical compositions in Example 2 (being freshly formulated referred to within 1 day after the formulation was completed), and the therapeutic effect of these doses on hydrochloric acid-induced acute lung injury in mice were determined, wherein the body weight of each mouse was 20 g.
8 to 10 weeks old C57/BL male and female mice were infused with 0.05 M HCl at 2.5 μl/bwg through the trachea. 4 hours later, 100 μl of FITC-labeled albumin (10 mg/ml) was injected through the posterior segment of eyeball. Finally, the mice were euthanized and lung tissue samples were collected 6 hours after the induction of injury to measure changes in pulmonary permeability and lung histopathology. […] Meanwhile, plasma was collected and bronchoalveolar lavage was performed after mice were euthanized.

Where a name gives a salt, the structure may show the parent alone.

Take `Cc1ccc(Nc2nccc(N(C)c3ccc4c(C)n(C)nc4c3)n2)cc1S(N)(=O)=O` [Comparative Example 1, pazopanib hydrochloride]: the “Percentage (%) of reduced lung permeability” value lay within 45 to 70%.
